# Experiments:
# Type in all cases: cell-based, human
# [1] = system: NKG2DL (MICA-B, ULBP1-3) surface expression; assay: flow cytometry of NKG2DL cell surface expression in cancer cell lines
# Procedure: Data are representative of five independent experiments. […] Controls were stained with APC-conjugated anti-human Fc antibody alone without preincubation with NKG2D-Fc. Data are representative of three independent experiments. […] Results are representative of two independent experiments. […] (E) NKG2DL mRNA expression in the colon cancer cell lines was analyzed by qRT-PCR analysis. Data are normalized to GAPDH mRNA levels and are presented as fold-change relative to the expression in DMSO-treated cells (n=5). (F) Lentiviral-based luciferase reporter construct containing the putative ULBP2 promoter (−2415 to 0 bp from the transcription start site: 73 bp upstream of ATG) was transduced into the colon cancer cell lines. Positively transduced cells were selected by puromycin treatment (2 μg/ml) for 2 weeks. […] Data shown are expressed as fold-change relative to the luciferase activity observed in DMSO-treated cells (n=3). * P<0.05, ** P<0.01.
# Cell lines were stained with allophycocyanin-conjugated anti-MICA, anti-MICB, or anti-ULBP2 antibodies for 20 min at 4° C. For ULBP1 and ULBP3 staining, cells were first incubated with anti-ULBP1 and anti-ULBP3 antibodies and then with allophycocyanin-conjugated goat anti-mouse IgG antibody. To analyze total NKG2DL cell surface expression, cells were first incubated with human NKG2D-Fc for 20 min at 4° C. and then with allophycocyanin-conjugated mouse anti-human IgG (Fc) antibody. Cells were washed and analyzed on a C6 flow cytometer (Accuri). Data were analyzed using FlowJo software (TreeStar).
# [2] = system: soluble ULBP2 from HCT116 cells; assay: ULBP2 ELISA (shedding to culture supernatant); details: 56 μM, 3 days
# Procedure: ULBP2 shed from cell surface to the culture supernatant was detected by ELISA method as described before (Waldhauer & Steinle. 2006. Cancer research 66:2520-2526). 100 μl (triplicate) of cultured supernatant was added into a 96-well plate pre-coated with 1 μg/ml of mouse anti-ULBP2 (BUMO1) and incubated at 4° C. overnight. The plate was washed and then incubated with mouse anti-ULBP2 (IgG2a, 100 μl/well at 1 μg/ml) for 1 h followed by incubation with HRP-conjugated goat anti-mouse IgG2a for 1 h at room temperature. TMB substrate was added and the plate was read using Victor^2 plate reader (Perkin Elmer).
# [3] = system: ATM/ATR checkpoint pathway in HCT116 cells; assay: Western blot of ATM/ATR checkpoint pathway
# Procedure: Total cell lysates were collected at various time points for Western blot analysis to detect (A) ATM (Ser1981) and ATR (Ser428) phosphorylation and (B) ULBP2 expression. Data shown are representative of three independent experiments. […] Total cell lysates were prepared at various time points (with the same total protein concentration as determined by BCA protein assay) (0 h to 24 h) for phospho-Chk1 by ELISA. Data were expressed as fold change relative to the degree of Chk1 phosphorylation at 0 h (n=3). […] Data are representative of three independent experiments. […] Data are representative of three independent experiments. […] Data shown are representative of three independent experiments. (G) The knockdown efficiencies of various siRNAs in HCT116 cells were evaluated by Western blot analysis. Results are representative of three independent experiments. […] Data shown are representative of three independent experiments. * P<0.05, ** P<0.01, *** P<0.001.
# [4] = system: Chk1 (Ser-317 phosphorylation); assay: Phospho-Chk1 ELISA; details: HCT116, 0 h to 24 h
# Procedure: Ser-317 phosphorylation of Chk1 was determined by using the PathScan phosphor-Chk1 (Ser317) Sandwich ELISA kit (Cell Signaling). Data were normalized to the total Chk1 levels obtained from an ELISA with anti-Chk1 (total) used as the detection antibody.
# HCT116 cells = assay: cell-cycle analysis (propidium iodide, EdU); details: HCT116, 24 h
# [5] = system: DNA damage in HCT116 cells; assay: comet assay
# Procedure: Experiments were performed according to the manufacturer's instructions.
# [6] = system: MMP-1, 7, 10, 12, and 13 in CAL27 cells; assay: RT-qPCR of MMP mRNA; details: 3 days
# Excerpt: Data were normalized to GAPDH mRNA levels and presented as fold change relative to the mRNA expression in DMSO treated cells (n=3). * P<0.005, ** P<0.001.
# MMP-1 = MMP-1 activity in culture supernatant; details: culture supernatant from HT29 and CAL27 cells
compound,measurement,setting,value
"CC(=O)S[C@@H]1CC2=CC(=O)CC[C@]2(C)[C@H]2CC[C@@]3(C)[C@@H](CC[C@@]34CCC(=O)O4)[C@H]12 [SPIR, spironolactone]",ULBP2 expression,"[1]; HCT116, HT29, SW480, HCT15, SPIR 56 μM, 3 days, dose-dependent",significantly increased
same,"expression of other NK cell ligands (CD112, CD155, Fas, HLAs)","[1]; HCT116 cells, 56 μM, 3 days",no increase in expression
same,ULBP1 expression,[1]; SW480 and HCT15 cells,selective increase
same,MICA/B and ULBP3 expression,[1]; all SPIR-treated cells,enhancement
same,total NKG2DL expression by soluble NKG2D-Fc staining,[1]; colon cancer cell lines,Consistent NKG2DL upregulation
same,viability of the cells,"[1]; colon cancer cell lines, SPIR treatment",without affecting the viability of the cells
same,amount of soluble ULBP2,[2],did not reduce but rather moderately increased
same,ATM and ATR phosphorylation,"[3]; HCT116, 56 μM, time-dependent",induces ATM and ATR phosphorylation
same,phosphorylated Chk2 and H2A.X,"[3]; HCT116, 24 h",an increase was also detected
same,Ser-317 phosphorylation of Chk1 (P-Chk1),[4],time-dependent increase
same,cell cycle,HCT116 cells,S-phase cell-cycle arrest
same,DNA breakage,"[5]; HCT116, 56 μM for 24 h",moderate decrease in DNA breakage
same,genotoxicity,[5]; conclusion from comet assays,not genotoxic
same,"expression of Matrix Metalloproteinases (MMP-1, MMP-7, MMP-10, MMP-12, MMP-13)",[6],downregulates expression
same,MMP-1 activity,MMP-1,decrease of MMP-1 activity

# Reference: patent US10286000B2, “Retinoid X receptor-gamma agonists and retinoid X receptor-alpha antagonists for treatment of cancer” (St. Jude Children's Research Hospital, Inc., priority 2013, dated 2019)
